Laboratory results reported in patent publication US20170354148A1, “SAFENED HERBICIDAL COMPOSITIONS CONTAINING HALAUXIFEN AND METHODS OF USE THEREOF IN BRASSICA SPECIES” (Dow AgroSciences LLC, priority 2016, published 2017).
Values joined by “and” are separate entries in the source; they are usually repeats but may differ in a detail not shown here. Identical values can stand only once.

Tests used:
[1] = test system: kale/Chinese kale (Brassica alboglabra, BRSAG); test: Example 5 greenhouse trials, postemergence visual injury; conditions: for % Visual Injury Obs / Visual Injury Obs: BRSAG
[2] = test system: Nexera™ canola (Brassica napus, BRSNN-NEX); test: as above; conditions: for % Visual Injury Obs / Visual Injury Obs: BRSNN-NEX
[3] = test system: Roundup Ready® canola (Brassica napus, RR-BRSNN); test: as above; conditions: for % Visual Injury Obs / Visual Injury Obs: RR-BRSNN
[4] = test system: Spring Argentine canola (Brassica napus, BRSNS); test: Example 3 field trials (Canada), postemergence crop safety, visual phytotoxicity; conditions: BRSNS
[5] = halauxifen-methyl alone 2.5 g ai/ha
[6] = halauxifen-methyl alone 5 g ai/ha
[7] = halauxifen-methyl alone 10 g ai/ha

Q: For `COC(=O)c1nc(-c2ccc(Cl)c(OC)c2F)cc(N)c1Cl` [Halauxifen-methyl, methyl 4-amino-3-chloro-6-(4-chloro-2-fluoro-3-methoxyphenyl)-2-pyridineccarboxylate], which “% Visual Injury Obs” value ([1]; 2.5 g ai/ha alone, 20-22 d) is on record?
A: Its value is 6%.

Q: What about the “% Visual Injury Obs” value ([1]; 5 g ai/ha alone, 20-22 d) of the same molecule?
A: The value was 10%.

Q: And the “% Visual Injury Obs” value ([1]; 10 g ai/ha alone, 20-22 d)?
A: The value was 16%.

Q: What about the “% Visual Injury Obs” value ([1]; halauxifen-methyl 2.5 g ai/ha) of the same molecule?
A: The value was 6%.

Q: And the “Visual Injury Obs” value ([1]; halauxifen-methyl 2.5 g ai/ha)?
A: Its value is 6%.

Q: What about the “% Visual Injury Obs” value ([1]; halauxifen-methyl 5 g ai/ha) of the same molecule?
A: The value was 10%.

Q: What about the “Visual Injury Obs” value ([1]; halauxifen-methyl 5 g ai/ha) of the same molecule?
A: Its value is 10%.

Q: What about the “% Visual Injury Obs” value ([1]; halauxifen-methyl 10 g ai/ha) of the same molecule?
A: The value was 16%.

Q: What about the “Visual Injury Obs” value ([1]; halauxifen-methyl 10 g ai/ha) of the same molecule?
A: The value was 16%.

Q: And the “Percent (%) Visual Injury BRSAG Obs” value [1, 5]?
A: The value was 6%.

Q: And the “Percent (%) Visual Injury BRSAG Obs” value [1, 6]?
A: The value was 10%.

Q: What about the “Percent (%) Visual Injury BRSAG Obs” value [1, 7] of the same molecule?
A: The value was 16%.

Q: What about the “% Visual Injury Obs” value ([2]; 2.5 g ai/ha alone, 20-22 d) of the same molecule?
A: The value was 15%.

Q: What about the “% Visual Injury Obs” value ([2]; 5 g ai/ha alone, 20-22 d) of the same molecule?
A: Its value is 20%.

Q: What about the “% Visual Injury Obs” value ([2]; 10 g ai/ha alone, 20-22 d) of the same molecule?
A: The value was 23%.

Q: What about the “% Visual Injury Obs” value ([2]; halauxifen-methyl 2.5 g ai/ha) of the same molecule?
A: The value was 15%.

Q: What about the “Visual Injury Obs” value ([2]; halauxifen-methyl 2.5 g ai/ha) of the same molecule?
A: Its value is 15%.

Q: What about the “% Visual Injury Obs” value ([2]; halauxifen-methyl 5 g ai/ha) of the same molecule?
A: The value was 20%.

Q: And the “Visual Injury Obs” value ([2]; halauxifen-methyl 5 g ai/ha)?
A: The value was 20%.

Q: What about the “% Visual Injury Obs” value ([2]; halauxifen-methyl 10 g ai/ha) of the same molecule?
A: The value was 23%.

Q: What about the “Visual Injury Obs” value ([2]; halauxifen-methyl 10 g ai/ha) of the same molecule?
A: Its value is 23%.

Q: What about the “Percent (%) Visual Injury BRSNN-NEX Obs” value [2, 5] of the same molecule?
A: The value was 15%.

Q: What about the “Percent (%) Visual Injury BRSNN-NEX Obs” value [2, 6] of the same molecule?
A: Its value is 20%.

Q: And the “Percent (%) Visual Injury BRSNN-NEX Obs” value [2, 7]?
A: Its value is 23%.

Q: And the “% Visual Injury Obs” value ([3]; 2.5 g ai/ha alone, 20-22 d)?
A: Its value is 11%.

Q: And the “% Visual Injury Obs” value ([3]; 5 g ai/ha alone, 20-22 d)?
A: The value was 14%.

Q: And the “% Visual Injury Obs” value ([3]; 10 g ai/ha alone, 20-22 d)?
A: Its value is 21%.

Q: What about the “% Visual Injury Obs” value ([3]; halauxifen-methyl 2.5 g ai/ha) of the same molecule?
A: The value was 11%.

Q: And the “Visual Injury Obs” value ([3]; halauxifen-methyl 2.5 g ai/ha)?
A: Its value is 11%.

Q: What about the “% Visual Injury Obs” value ([3]; halauxifen-methyl 5 g ai/ha) of the same molecule?
A: Its value is 14%.

Q: And the “Visual Injury Obs” value ([3]; halauxifen-methyl 5 g ai/ha)?
A: Its value is 14%.

Q: What about the “% Visual Injury Obs” value ([3]; halauxifen-methyl 10 g ai/ha) of the same molecule?
A: The value was 21%.

Q: What about the “Visual Injury Obs” value ([3]; halauxifen-methyl 10 g ai/ha) of the same molecule?
A: The value was 21%.

Q: And the “Percent (%) Visual Injury RR-BRSNN Obs” value [3, 5]?
A: The value was 11%.

Q: What about the “Percent (%) Visual Injury RR-BRSNN Obs” value [3, 6] of the same molecule?
A: The value was 14%.

Q: And the “Percent (%) Visual Injury RR-BRSNN Obs” value [3, 7]?
A: Its value is 21%.

Q: What about the “Mean % Visual Injury” value ([4]; 7DAAA, 5 g ae/ha (Tables 10, 11)) of the same molecule?
A: Its value is 0.8%.

Q: And the “Mean % Visual Injury” value ([4]; 15DAAA, 5 g ae/ha (Tables 10, 11))?
A: The value was 50.5%.

Q: What about the “Mean % Visual Injury” value ([4]; 27DAAA, 5 g ae/ha (Tables 10, 11)) of the same molecule?
A: Its value is 48.5%.

Q: What about the “Mean % Visual Injury” value ([4]; 57DAAA, 5 g ae/ha (Tables 10, 11)) of the same molecule?
A: The value was 30.3%.

Q: And the “Mean % Visual Injury” value ([4]; trial 1, 7DAA1, 1.25 g ae/ha)?
A: Its value is 1.8%.

Q: And the “Mean % Visual Injury” value ([4]; trial 1, 7DAA1, 2.5 g ae/ha)?
A: Its value is 1.8%.

Q: And the “Mean % Visual Injury” value ([4]; trial 1, 7DAA1, 5 g ae/ha)?
A: Its value is 2.0%.

Q: What about the “Mean % Visual Epinasty” value ([4]; trial 1, 17DAA1, 0.62 g ae/ha) of the same molecule?
A: Its value is 2.5%.

Q: And the “Mean % Visual Injury” value ([4]; trial 1, 17DAA1, 0.62 g ae/ha)?
A: The value was 2.5%.

Q: And the “Mean % Visual Epinasty” value ([4]; trial 1, 17DAA1, 1.25 g ae/ha)?
A: The value was 2.5%.

Q: And the “Mean % Visual Injury” value ([4]; trial 1, 17DAA1, 1.25 g ae/ha)?
A: The value was 2.5%.

Q: What about the “Mean % Visual Epinasty” value ([4]; trial 1, 17DAA1, 2.5 g ae/ha) of the same molecule?
A: Its value is 3.0%.

Q: What about the “Mean % Visual Injury” value ([4]; trial 1, 17DAA1, 2.5 g ae/ha) of the same molecule?
A: Its value is 3.3%.

Q: And the “Mean % Visual Epinasty” value ([4]; trial 1, 17DAA1, 5 g ae/ha)?
A: The value was 2.5%.

Q: What about the “Mean % Visual Injury” value ([4]; trial 1, 17DAA1, 5 g ae/ha) of the same molecule?
A: The value was 3.3%.

Q: What about the “Mean % Visual Epinasty” value ([4]; trial 1, 32DAA1, 0.62 g ae/ha) of the same molecule?
A: Its value is 5.0%.

Q: What about the “Mean % Visual Injury” value ([4]; trial 1, 32DAA1, 0.62 g ae/ha) of the same molecule?
A: The value was 8.3%.

Q: What about the “Mean % Visual Injury” value ([4]; trial 1, 32DAA1, 1.25 g ae/ha) of the same molecule?
A: Its value is 13.0%.

Q: What about the “Mean % Visual Injury” value ([4]; trial 1, 49DAA1, 0.62 g ae/ha) of the same molecule?
A: The value was 0.3%.

Q: And the “Mean % Visual Injury” value ([4]; trial 1, 49DAA1, 1.25 g ae/ha)?
A: The value was 2.3%.

Q: And the “Mean % Visual Injury” value ([4]; trial 1, 49DAA1, 2.5 g ae/ha)?
A: Its value is 2.5%.

Q: And the “Mean % Visual Injury” value ([4]; trial 2, 8DAA1, 5 g ae/ha)?
A: The value was 4.0% and 3.0% and 2.0%.

Q: And the “Mean % Visual Injury” value ([4]; trial 2, 8DAA1, 10 g ae/ha)?
A: Its value is 4.8% and 3.3% and 2.8% and 2.0%.

Q: What about the “Mean % Visual Injury” value ([4]; trial 2, 17DAA1, 10 g ae/ha) of the same molecule?
A: The value was 35.5%.

Q: And the “Mean % Visual Epinasty” value ([4]; trial 2, 35DAA1, 10 g ae/ha)?
A: Its value is 4.0% and 2.8%.

Q: And the “Mean % Visual Injury” value ([4]; trial 2, 48DAA1, 5 g ae/ha)?
A: Its value is 1.8% and 1.5%.

Q: What about the “Mean % Visual Epinasty” value ([4]; trial 3, 6DAA1, 5 g ae/ha) of the same molecule?
A: Its value is 9.5%.

Q: And the “Mean % Visual Epinasty” value ([4]; trial 3, 6DAA1, 10 g ae/ha)?
A: The value was 8.8%.

Q: What about the “Mean % Visual Epinasty” value ([4]; trial 3, 23DAA1, 2.5 g ae/ha) of the same molecule?
A: Its value is 38.8%.

Q: And the “Mean % Visual Epinasty” value ([4]; trial 3, 23DAA1, 5 g ae/ha)?
A: Its value is 50.0%.

Q: And the “Mean % Visual Injury” value ([4]; trial 3, 33DAA1, 5 g ae/ha)?
A: Its value is 6.5% and 2.0%.

Q: What about the “Mean % Visual Injury” value ([4]; trial 3, 33DAA1, 10 g ae/ha) of the same molecule?
A: The value was 5.5%.

Q: What about the “Mean % Visual Injury” value ([4]; trial 3, 69DAA1, 2.5 g ae/ha) of the same molecule?
A: The value was 3.0%.

Q: What about the “Mean % Visual Injury” value ([4]; trial 3, 69DAA1, 5 g ae/ha) of the same molecule?
A: Its value is 4.0%.

Q: What about the “Mean % Visual Injury” value ([4]; trial 4, 8DAA1, 5 g ae/ha) of the same molecule?
A: Its value is 8.0%.

Q: And the “Mean % Visual Injury” value ([4]; trial 4, 15DAA1, 0.62 g ae/ha)?
A: Its value is 3.5%.

Q: And the “Mean % Visual Injury” value ([4]; trial 4, 15DAA1, 2.5 g ae/ha)?
A: Its value is 14.3%.

Q: And the “Mean % Visual Epinasty” value ([4]; trial 4, 17DAA1, 5 g ae/ha)?
A: Its value is 23.3%.

Q: And the “Mean % Visual Injury” value ([4]; trial 4, 41DAA1, 5 g ae/ha)?
A: The value was 8.0%.

Q: What about the “Mean % Visual Injury” value ([4]; trial 4, 82DAA1, 5 g ae/ha) of the same molecule?
A: Its value is 6.0%.

Q: And the “Mean % Visual Injury” value ([4]; trial 5, 7DAA1, 5 g ae/ha)?
A: Its value is 7.5%.

Q: What about the “Mean % Visual Injury” value ([4]; trial 5, 7DAA1, 10 g ae/ha) of the same molecule?
A: Its value is 9.0% and 3.5% and 2.0% and 1.5%.

Q: What about the “Mean % Visual Injury” value ([4]; trial 5, 15DAA1, 5 g ae/ha) of the same molecule?
A: The value was 27.0%.

Q: What about the “Mean % Visual Injury” value ([4]; trial 5, 15DAA1, 10 g ae/ha) of the same molecule?
A: The value was 9.0% and 2.5% and 1.0%.

Q: And the “Mean % Visual Injury” value ([4]; trial 5, 36DAA1, 10 g ae/ha)?
A: The value was 6.0%.

Q: What about the “Mean % Visual Injury” value ([4]; trial 5, 79DAA1, 10 g ae/ha) of the same molecule?
A: The value was 3.0% and 4.5% and 5.3%.

Q: What about the “Mean % Visual Injury” value ([4]; trial 6, 6DAA1, 5 g ae/ha) of the same molecule?
A: Its value is 24.5%.

Q: What about the “Mean % Visual Injury” value ([4]; trial 6, 6DAA1, 10 g ae/ha) of the same molecule?
A: Its value is 27.5%.

Q: What about the “Mean % Visual Injury” value ([4]; trial 6, 23DAA1, 2.5 g ae/ha) of the same molecule?
A: Its value is 38.8%.

Q: And the “Mean % Visual Injury” value ([4]; trial 6, 23DAA1, 5 g ae/ha)?
A: Its value is 52.5%.

Q: And the “Mean % Visual Injury” value ([4]; trial 6, 33DAA1, 2.5 g ae/ha)?
A: The value was 22.5%.

Q: And the “Mean % Visual Injury” value ([4]; trial 6, 33DAA1, 5 g ae/ha)?
A: Its value is 43.0%.

Q: What about the “Mean % Visual Injury” value ([4]; trial 6, 59DAA1, 2.5 g ae/ha) of the same molecule?
A: The value was 28.5%.

Q: What about the “Mean % Visual Injury” value ([4]; trial 7, 17DAA1, 5 g ae/ha) of the same molecule?
A: The value was 45.0%.

Q: And the “Mean % Visual Injury” value ([4]; trial 7, 27DAA1, 5 g ae/ha)?
A: The value was 34.0%.

Q: And the “Mean % Visual Injury” value ([4]; trial 8, 7DAA1, 5 g ae/ha)?
A: Its value is 0.8%.
